Laboratory results as given in patent US9801839B2, “Therapeutic method” (Macfarlane Burnet Institute for Medical Research and Public …, priority 2014, dated 2017).
Entries after “also recorded” stand apart in the source; their conditions may differ. Structures can show the parent of a compound that is named as a salt.

Assays:
Ect cells [1] = experiment: Cytokine release in transwells (FlowCytomix bead assay); format: cell-based, human; details: for IL-6 secretion induced by TLR3 agonist PIC / IL-8 secretion induced by TLR3 agonist PIC / IL-1RA production: 0.3% acid pH 3.9 or media acidified to pH 3.9 with HCl; for IL-1RA production: absence or presence of PIC
Experimental: (§1) Cytokines were measured using FlowCytomix assays, utilising the basic reagents kit, in conjunction with simplex kits for IL-6, IL-8 and IL-1RA (eBiosciences).
(§2) Test Procedure • 1. Calculate required volumes of reagents and make standards, bead mixtures and biotin-conjugate as described above. • 2. Add 15 μL of either standard, sample or blank (1× assay buffer) to appropriately labelled tubes. • 3. Add 15 μL of prepared bead mixture to each tube. • 4. Add 30 μL of biotin-conjugate mix to each tube, mix tubes well and incubate at room temp for 2 hours. Protect samples from light with foil. • 5. Prepare Streptavidin-PE mix. • 6. Add 0.6 ml 1× assay buffer to each tube and centrifuge at 200 g for 5 min. • 7. Discard s/n, leaving approx. 100 μL. Repeat for a total of 2 washes. • 8. Add 30 μL of Streptavidin-PE mix to all tubes, mix well and incubate at room temp for 1 hour (protected from light). • 9. Add 0.6 ml 1× assay buffer to each tube and centrifuge at 200 g for 5 min. • 10. Discard s/n, leaving approx. 100 μL. Repeat for a total of 2 washes. • 11. Discard s/n from final wash, leaving 100-200 μL of buffer. Analyse samples on the flow cytometer within 24 hours (preferable the same day as the experiment).
(§3) The following concentrations of TLR agonists (Table 3.) have been used to activate FGT cells either alone of added with LA-containing media for 18-24 hours.

[2] = test system: vaginal (VK2) epithelial cells
[3] = test system: ectocervical (Ect) epithelial cells
[4] = test system: endocervical (End) epithelial cells
VK2 cells = experiment: Cytokine release in transwells (FlowCytomix bead assay); format: cell-based, human
Experimental: (§4) An analysis was performed to determine if physiologic noncytotoxic concentrations of L-LA alter the release of immune modulators by VK2, End and Ect cells by incubating cells in transwells with L-LA for 24 h at 37° C. in serum free keratinocyte medium and harvesting supernatants (from the apical chamber) for release of immune modulators.
as §1, §2, §3

End cells = experiment: as above; format: cell-based, human
Experimental: as §4, §1, §2, §3

[5] = test system: epithelial cells from the lower female reproductive tract; experiment: Cytotoxicity in a standard plate format; format: cell-based, human; details: 0.4% L-lactic acid, standard plate format (data not shown)
Ect cells [6] = experiment: Cytokine release in transwells (FlowCytomix bead assay); format: cell-based, human; details: 0.3%
[7] = test system: primary ectocervical cells; experiment: Cytokine/chemokine production by primary cells in transwells; format: cell-based, human; details: 0.3% LA, PIC or both
Excerpt: Culture of Human Primary Ectocervical Cells in Transwells. To further qualify the data in Example 9, we repeated the experiment with primary ectocervical cells.

[8] = test system: human female reproductive tissue; details: low pH; cited from earlier work
[9] = test system: Ect1 E6/E7 ectocervical epithelial cell line; experiment: Cyto/chemokine analysis (Procartaplex, Luminex) after 1 hour treatment; format: cell-based, human; details: Ect; for IL-1RA production from cells stimulated with PIC, acid alone / PIC-induced cytokine production, acid alone: 0.03% benzoic acid or 0.15% citric acid; for PIC-induced cytokine production, acid alone: compared with low pH alone (HCl); for LA-induced production of IL-1RA in the presence of the acid: 0.3% LA with 0.03% benzoic acid or 0.15% citric acid; for IL-1RA production, no TLR agonist / IL-6 basal production, no TLR agonist: 1 hour treatment at pH 3.9 (acids at various concentrations, gels diluted to about 0.3% LA), supernatant after 18 hours; for other immune mediators (IL-8, MIP3α, TNF, IL-1B, RANTES), no TLR agonist: 1 hour treatment at pH 3.9, not shown; for LA inhibition of PIC-induced IL-8, IL-6 and TNF in the presence of the acid: PIC and 0.3% LA with 0.03% benzoic acid or 0.15% citric acid
[10] = test system: Ect1 E6/E7 ectocervical epithelial cell line; experiment: Viability (MTS) 18 hours after 1 hour treatment; details: range of concentrations, pH 3.9, 1 hour incubation, read 18 hours later
Experimental: The human ectocervical epithelial cell line Ect1 E6/E7 was utilized for these experiments. Cells were cultured and treated in serum free keratinocyte media (SFKM) containing supplements as per ATCC recommendations. Cells were seeded in 6 mm transwell inserts at a density of 100,000 cells per well, and cultured for 7 days prior to treatment. […] Cytokine-containing supernatants were collected and stored at −80° C. for future analysis and cell viability assessed via MTS assay as per manufacturer's recommendations.
NOTE: The pH of all treatment media containing gels/acids was adjusted to pH 3.9 (to match that of 0.3% LA) prior to treatment. This was performed to ensure that a similar concentration of protonated LA, the active form of LA, was compared. A pH control (media adjusted to pH 3.9 with HCl) was included to determine the effect of low pH alone.
Due to the poor buffering capacity of HCl, treatments containing HCl were refreshed every 20 min during the 1 hour treatment time to ensure the low pH of the treatment media was maintained.

[11] = 0.3% acid (pH 3.9) or low pH alone (pH 3.9 with HCl)
[12] = 0.3% in apical medium, pH 3.9, 24 h
[13] = 0.3%, pH 3.9, absence or presence of PIC
[14] = added to the apical medium in the transwell system, 24 hr
[15] = PIC 1 hour with 0.3% LA or gels diluted to about 0.3% LA, pH 3.9

For C[C@@H](O)C(=O)O [D-LA, D-(−)-lactic acid], which “IL-6 secretion induced by TLR3 agonist PIC” value (shortened to “IL-6 secretion induced”) (Ect cells [1]) is on record?
The value was “reduce secretion”.

What about the “IL-8 secretion induced by TLR3 agonist PIC” value (shortened to “IL-8 secretion induced”) (Ect cells [1]) of the same compound?
Its value is “reduce secretion”.

And the IL-1RA production (Ect cells [1])?
The IL-1RA production was “increase IL-1RA production”.

Which results are given for Cl [HCl, Hydrochloric acid, reference compound]?
IL-6 secretion induced by TLR3 agonist PIC (Ect cells [1]): neither neutralised L-LA nor HCl acidified media had any significant effect; IL-8 secretion induced by TLR3 agonist PIC (Ect cells [1]): neither neutralised L-LA nor HCl acidified media had any significant effect; IL-1RA production (Ect cells [1]): neither neutralised L-LA nor HCl acidified media had any significant effect; effect on cell viability [2, 11]: non-toxic; effect on cell viability [3, 11]: non-toxic; effect on cell viability [4, 11]: non-toxic

With C[C@H](O)C(=O)O [L-LA, L-(+)-lactic acid] as the compound, how does the “IL-6 secretion induced” value (Ect cells [1]) read?
The value was “reduce secretion; also recorded: reduced the production”.

What about the “IL-8 secretion induced” value (Ect cells [1]) of the same compound?
Its value is “reduce secretion; also recorded: reduced the production”.

And the IL-1RA production (Ect cells [1])?
Its IL-1RA production is “induces IL-1RA production; also recorded: increase IL-1RA production; also recorded: significant increase”.

And the “decreasing levels of proinflammatory cytokines (IL-6, IL-8) induced by PIC, neutralised” value (Ect cells [1]; 0.3% at pH 7.4)?
The value was “neither neutralised L-LA nor HCl acidified media had any significant effect”.

And the “increasing the production of IL-1RA, neutralised” value (Ect cells [1]; 0.3% at pH 7.4)?
The value was “neither neutralised L-LA nor HCl acidified media had any significant effect”.

What about the “treatment time sufficient for the effects on IL-1RA, IL-6, IL-8, TNFα, RANTES and MIP3α” value (Ect cells [1]; 0.3% with or without PIC for 0.5, 1 or 18 hrs, cytokines measured at 18 hrs) of the same compound?
Its value is 30 min.

And the “IL-1RA production with Pam3Ck (TLR2) and lipopolysaccharide (TLR4)” value (shortened to “IL-1RA production with Pam3Ck”) (Ect cells [1]; 0.3%, pH 3.9)?
Its value is “same result”.

What about the “IL-6 secretion induced” value (VK2 cells; [12]) of the same compound?
The value was “reduces secretion”.

And the “IL-8 secretion induced” value (VK2 cells; [12])?
The value was “reduces secretion”.

What about the “IL-1RA production with Pam3Ck” value (VK2 cells; 0.3%, pH 3.9) of the same compound?
Its value is “same result”.

What about the IL-1RA production (VK2 cells; [13]) of the same compound?
Its IL-1RA production is “induces IL-1RA production”.

What about the “IL-6 secretion induced” value (End cells; [12]) of the same compound?
Its value is “reduces secretion”.

What about the “IL-8 secretion induced” value (End cells; [12]) of the same compound?
Its value is “reduces secretion”.

And the “IL-1RA production with Pam3Ck” value (End cells; 0.3%, pH 3.9)?
Its value is “same result”.

And the IL-1RA production (End cells; [13])?
Its IL-1RA production is “induces IL-1RA production”.

What about the “L-lactic acid concentrations tolerated” value [2, 14] of the same compound?
The value was “up to 0.4%”.

What about the “L-lactic acid concentrations tolerated” value [3, 14] of the same compound?
The value was “up to 0.4%”.

What about the “L-lactic acid concentrations tolerated” value [4, 14] of the same compound?
Its value is “up to 0.4%”.

And the “cytotoxicity in standard plate format” value [5]?
Its value is “highly cytotoxic”.

What about the “MIP3α production induced by TLR agonist (PIC)” value (Ect cells [6]) of the same compound?
The value was “reduced the production”.

What about the “RANTES production induced by TLR agonist (PIC)” value (Ect cells [6]) of the same compound?
Its value is “reduced the production”.

What about the “TNFα production induced by TLR agonist (PIC)” value (Ect cells [6]) of the same compound?
The value was “reduced the production”.

With CC(O)C(=O)O (centres unmarked) [LA, lactic acid] as the compound, how does the “production of IL-1RA, IL-6, IL-8, TNFα, RANTES and MIP3α” value [7] read?
The value was “trend similar to that of LA treatment of cells lines”.

What about the “inflammatory activity on human female reproductive tissue” value [8] of the same compound?
The value was “pro-inflammatory”.

What about the “IL-1β production, no TLR agonist” value ([9]; 1 hour treatment, levels below the limit of detection (data not shown)) of the same compound?
The value was “small increase”.

And the “PIC-induced production of IL-6” value [9, 15]?
Its value is “inhibits”.

What about the “PIC-induced production of IL-8” value [9, 15] of the same compound?
Its value is “inhibits”.

And the “PIC-induced production of TNF” value [9, 15]?
The value was “inhibits”.

With O=C(O)c1ccccc1 [benzoic acid, Benzoic acid] as the compound, how does the “viability of Ect cells, acid excipients” value [10] read?
The value was “Neither benzoic nor citric acid had any significant effect”.

And the “IL-1RA production from cells stimulated with PIC, acid alone” value [9]?
Its value is “neither citric nor benzoic acid altered”.

What about the “PIC-induced cytokine production, acid alone” value [9] of the same compound?
Its value is “did not appear to alter”.

And the “LA-induced production of IL-1RA in the presence of the acid” value [9]?
Its value is “largely preserved”.

And the “IL-1RA production, no TLR agonist” value [9]?
The value was “Neither acid was associated with an altered expression”.

What about the “IL-6 basal production, no TLR agonist” value [9] of the same compound?
Its value is “Neither acid was associated with an altered expression”.

What about the “other immune mediators (IL-8, MIP3α, TNF, IL-1B, RANTES), no TLR agonist” value [9] of the same compound?
Its value is “similarly unaltered”.

And the “LA inhibition of PIC-induced IL-8, IL-6 and TNF in the presence of the acid” value [9]?
The value was “persists”.

With O=C(O)CC(O)(CC(=O)O)C(=O)O [citric acid, Citric acid] as the compound, how does the “IL-1RA production from cells stimulated with PIC, acid alone” value [9] read?
Its value is “neither citric nor benzoic acid altered”.

And the “PIC-induced cytokine production, acid alone” value [9]?
The value was “did not appear to alter”.

What about the “IL-1RA production, acid in combination with PIC and LA” value ([9]; 0.15% citric acid, compared to cells stimulated with LA and PIC) of the same compound?
Its value is “reduced production”.

And the “LA-induced production of IL-1RA in the presence of the acid” value [9]?
Its value is “largely preserved”.

And the “IL-1RA production, no TLR agonist” value [9]?
The value was “Neither acid was associated with an altered expression”.

What about the “IL-6 basal production, no TLR agonist” value [9] of the same compound?
Its value is “Neither acid was associated with an altered expression”.

And the “other immune mediators (IL-8, MIP3α, TNF, IL-1B, RANTES), no TLR agonist” value [9]?
Its value is “similarly unaltered”.

And the “LA inhibition of PIC-induced IL-8, IL-6 and TNF in the presence of the acid” value [9]?
The value was “persists”.
